Assay results published in patent US8273724B2, “Melanoma antigens and their use in diagnostic and therapeutic methods” (The United States of America, as represented by the …, priority 1994, dated 2012).
Like-named read-outs stand apart in the source and are kept apart here. Where a SMILES comes first, the peptide text is derived from it.

Legend:
[1] = tested on: T2 cells preincubated with peptides; assay: IFN-γ / cytokine release by TIL incubated with T2 cells preincubated with peptides; assay type: cell-based, human; conditions: T2 cells preincubated with peptide; data not shown
[2] = tested on: T2 cell lines preincubated with peptide; assay: Recognition of modified peptides by natural epitope (M9-2, G9-154, G9-209, G9-280) reactive T-cells, 51Cr release on peptide-pulsed T2 cells (Example 5); assay type: cell-based, human
Procedure, shortened: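 T2 target cells were pulsed with 1 ug/ml peptide for 2 h at 37° C., then washed. CTL recognition was measured by ^51Cr release cytotoxicity.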

[3] = biological target: T1, HLA-A2.1 (Homo sapiens, UniProt P04439, D140Y/D185E/D98H/E176V/E277Q/G131W/G231S/I119V/I121R/I166T/I218V/L300P/L318F/N151K/N90K/P208A/P217A/Q86G/Q94H/R138H/R169H/T345S); assay: Peptide binding assay to HLA-A2.1, competition with radiolabeled HBc18-27 (Example 4)
[4] = tested on: 624mel melanoma cell line; assay: Induction of peptide specific CTL from PBL, 51Cr release against melanoma cells (Example 5); assay type: cell-based, human; conditions: for % specific lysis by PBL stimulated with the peptide: target 624mel, E:T = 3D40:1; for recognition and lysis of original epitopes and melanoma tumor cells (624 mel) by PBL stimulated with the peptide, compared with natural epitopes: PBL stimulated with autologous PBMC pulsed with peptide
Procedure: (§1) Induction of peptide specific CTL PBMC were separated from peripheral blood of HLA-A2+ melanoma patients and normal donors by centrifugation on Ficoll-Hypaque gradients and used as fresh or cryopreserved samples. […] Two days later, 12 IU/ml interleukin 2 (IL-2) (Chiron Co., Emeryville, Calif.) were added to the cultures. Lymphocytes were then restimulated weekly as follows: responder cells were harvested, washed once and replated in 24-well plates at a concentration of 2.5×10^5 cells/ml in CM. Autologous PBMC were thawed, washed twice in PBS, resuspended at 5-8×10^6 cells/ml in CM and pulsed with 1 ug/ml peptide in 15-ml conical tubes (5 ml/tube) for 3 hours at 37° C. These PBMC (stimulators) were then irradiated at 3000 rads, washed once in PBS and added to the responder cells at responder:stimulator ratios ranging between 1:3 and 1:10. The next day, 12 IU/ml IL-2 were added to the cultures. The activity of these CTL was tested by cytotoxicity assays after at least 2 rounds (14 days) of peptide stimulation. To generate CTL from TIL cultures, the dissociated tumor suspension were cultured for 1-2 days in 10% FCS RPMI-1640 medium to allow tumor cell adherence. The lymphocytes, recovered from the non-adherent fraction, were used for the induction of peptide specific CTL as described above.
(§2) Assessment of antigen recognition by CTL. ^51Cr release cytotoxic assays were performed to detect the recognition of peptide and melanoma cells by CTL. To analyze peptide recognition, T2 cell lines were preincubated for 2 h at 37° C. with 1 ug/ml peptide, washed and used as target cells in a ^51Cr release cytotoxic assay. The melanoma lines 624mel was established in our laboratory (See Example 1).

[5] = tested on: T2 cells; assay: Induction of peptide specific CTL from PBL, 51Cr release against T2 cells with or without peptide (Example 5); assay type: cell-based, human; conditions: E:T = 3D40:1
Procedure: as §1, §2

[6] = biological target: T1, HLA-A2.1; assay: HLA-A2.1 binding assay of modified peptides, inhibition of radiolabeled Hbc 18-27 (Example 5)
[7] = tested on: HLA-A2.1+ T2 cells; conditions: for TIL that recognize the peptide: cytotoxicity assays, T2 preincubated with peptide
[8] = after 4 stimulations (Table 18)
[9] = target T2 + G9-154-2I, after 4 stimulations
[10] = target T2 + G9-154, after 4 stimulations
[11] = target T2, after 4 stimulations (Table 18)
[12] = Exp. 1, peptide 1 ug/ml, TIL 620-1
[13] = Exp. 1, peptide 1 ug/ml, TIL 620-2
[14] = Exp. 1, peptide 1 ug/ml, TIL 660-1
[15] = Exp. 1, peptide 1 ug/ml, TIL 1143
[16] = Exp. 1, peptide 1 ug/ml, TIL 1200
[17] = Exp. 1, peptide 1 ug/ml, TIL 1235
[18] = Exp. 3, peptide 1 ug/ml, TIL 660-3
[19] = Exp. 3, peptide 1 ug/ml, TIL 1143
[20] = Exp. 3, peptide 1 ug/ml, TIL 1200
[21] = Exp. 3, peptide 1 ug/ml, TIL 1235
[22] = after 4 stimulations (Table 20)
[23] = target T2 + G9-280-9V, after 4 stimulations
[24] = target T2 + G9-280, after 4 stimulations
[25] = target T2, after 4 stimulations (Table 20)

CC[C@H](C)[C@H](NC(=O)CNC(=O)[C@H](C)NC(=O)[C@H](C)N)C(=O)NCC(=O)N[C@H](C(=O)N[C@@H](CC(C)C)C(=O)N[C@H](C(=O)N[C@H](C(=O)O)C(C)C)[C@@H](C)O)[C@@H](C)CC [M9-2]
cytokine secretion (IFN-γ, GM-CSF, TNF-α) by 10 TIL and clone A42 [1]: secreted cytokines
Recognition by M9-2 reactive T-cell [2]: + (+, recognized)

CC(C)C[C@H](NC(=O)[C@H](CCCNC(=N)N)NC(=O)[C@H](CC(C)C)NC(=O)[C@@H](NC(=O)[C@H](C)NC(=O)[C@@H](NC(=O)CNC(=O)[C@H](CC(=O)O)NC(=O)[C@H](CC(C)C)NC(=O)[C@@H](N)CC(C)C)[C@@H](C)O)[C@@H](C)O)C(=O)O [G10-4]
IC50 [3]: 483 nM

CC(C)[C@H](NC(=O)[C@H](CCC(N)=O)NC(=O)[C@H](Cc1c[nH]c2ccccc12)NC(=O)[C@H](Cc1ccc(O)cc1)NC(=O)[C@H](CCC(N)=O)NC(=O)CNC(=O)[C@H](Cc1c[nH]c2ccccc12)NC(=O)[C@@H](NC(=O)[C@@H](N)CCCCN)[C@@H](C)O)C(=O)O [G9154]
Recognition by G9-154 reactive T-cell [2]: + (+, recognized)
% specific lysis by PBL stimulated with the peptide [4, 8]: 5%
% specific lysis by PBL stimulated with the peptide [5, 9]: 8%
% specific lysis by PBL stimulated with the peptide [5, 10]: 14%
% specific lysis by PBL stimulated with the peptide [5, 11]: 11%

CC(C)C[C@H](NC(=O)[C@@H](N)Cc1ccccc1)C(=O)N[C@@H](CC(=O)O)C(=O)N[C@@H](CCC(N)=O)C(=O)N[C@H](C(=O)N1CCC[C@H]1C(=O)N[C@@H](Cc1ccccc1)C(=O)N[C@@H](CO)C(=O)N[C@H](C(=O)O)C(C)C)C(C)C [G9-209-1F2L]
Recognition by G9-209 reactive T-cell [2]: + (+, recognized)
recognition by the original melanoma reactive T-cells [2]: recognized
recognition and lysis of original epitopes and melanoma tumor cells (624 mel) by PBL stimulated with the peptide, compared with natural epitopes [4]: better
% specific lysis by PBL stimulated with the peptide ([4]; after 4 stimulations (Table 19)): 63%
% specific lysis by PBL stimulated with the peptide ([5]; target T2 + G9-209-1F2L, after 4 stimulations): 86%
% specific lysis by PBL stimulated with the peptide ([5]; target T2 + G9-209, after 4 stimulations): 85%
% specific lysis by PBL stimulated with the peptide ([5]; target T2, after 4 stimulations (Table 19)): 0%
binding affinity to HLA-A2.1 compared with the natural epitope [6]: higher binding affinity

CC(C)C[C@H](NC(=O)[C@@H](N)Cc1ccc(O)cc1)C(=O)N[C@@H](CCC(=O)O)C(=O)N1CCC[C@H]1C(=O)NCC(=O)N1CCC[C@H]1C(=O)N[C@H](C(=O)N[C@H](C(=O)N[C@@H](C)C(=O)O)[C@@H](C)O)C(C)C [G9280]
number of gp100 reactive TIL recognizing the peptide ([7]; 4 gp100 reactive TIL from different patients): 2 of 4
% specific lysis at E:T = 40:1 [7, 12]: 2%
% specific lysis at E:T = 40:1 [7, 13]: 7%
% specific lysis at E:T = 40:1 [7, 14]: 43%
% specific lysis at E:T = 40:1 [7, 15]: 11%
% specific lysis at E:T = 40:1 [7, 16]: 0%
% specific lysis at E:T = 40:1 [7, 17]: 0%
% specific lysis at E:T = 40:1 ([7]; Exp. 2, peptide 1 ng/ml, TIL 620-1): 2%
% specific lysis at E:T = 40:1 ([7]; Exp. 2, peptide 1 ng/ml, TIL 620-2): 9%
% specific lysis at E:T = 40:1 ([7]; Exp. 2, peptide 1 ng/ml, TIL 660-2): 75%
% specific lysis at E:T = 40:1 ([7]; Exp. 2, peptide 1 ng/ml, TIL 1143): 34%
% specific lysis at E:T = 40:1 ([7]; Exp. 2, peptide 1 ng/ml, TIL 1200): 1%
% specific lysis at E:T = 40:1 ([7]; Exp. 2, peptide 1 ng/ml, TIL 1235): 2%
% specific lysis at E:T = 40:1 [7, 18]: 99%
% specific lysis at E:T = 40:1 [7, 19]: 37%
% specific lysis at E:T = 40:1 [7, 20]: 9%
% specific lysis at E:T = 40:1 [7, 21]: 5%
TIL that recognize the peptide [7]: recognized by TIL660 and TIL1143
% specific lysis by PBL stimulated with the peptide [4, 22]: 11%
binding affinity class to HLA-A2.1 [3]: inteivediate
% specific lysis by PBL stimulated with the peptide [5, 23]: 8%
% specific lysis by PBL stimulated with the peptide [5, 24]: 11%
% specific lysis by PBL stimulated with the peptide [5, 25]: 3%
HLA-A2.1 binding, in words ([6]; natural epitopes): not high affinity binders

CC(C)C[C@H](NC(=O)[C@@H](N)C(C)C)C(=O)N[C@@H](Cc1ccc(O)cc1)C(=O)N[C@@H](CCCNC(=N)N)C(=O)N[C@@H](Cc1ccc(O)cc1)C(=O)NCC(=O)N[C@@H](CO)C(=O)N[C@@H](Cc1ccccc1)C(=O)N[C@@H](CO)C(=O)N[C@H](C(=O)O)C(C)C [G10-5] (H-VLYRYGSFSV-OH; N-terminus and C-terminus assumed)
lysis of T2 cells preincubated with the peptide [7]: repeatedly low
% specific lysis at E:T = 40:1 [7, 12]: 2%
% specific lysis at E:T = 40:1 [7, 13]: 7%
% specific lysis at E:T = 40:1 [7, 14]: 2%
% specific lysis at E:T = 40:1 [7, 15]: 1%
% specific lysis at E:T = 40:1 [7, 16]: 7%
% specific lysis at E:T = 40:1 [7, 17]: 0%
% specific lysis at E:T = 40:1 [7, 18]: 14%
% specific lysis at E:T = 40:1 [7, 19]: 2%
% specific lysis at E:T = 40:1 [7, 20]: 6%
% specific lysis at E:T = 40:1 [7, 21]: 5%
TIL that recognize the peptide [7]: TIL660-3 also recognized
IC50 ([3]; binding to HLA-A2.1): 13 nM
Ratio to Standard: binding affinity of the sample peptide to that of the standard peptide ([3]; standard peptide 50% inhibition at 5 nM): 0.38

CC(C)C[C@H](NC(=O)[C@@H](N)Cc1ccc(O)cc1)C(=O)N[C@@H](CCC(=O)O)C(=O)N1CCC[C@H]1C(=O)NCC(=O)N1CCC[C@H]1C(=O)N[C@H](C(=O)N[C@H](C(=O)O)[C@@H](C)O)C(C)C [G9-280-9V] (H-YLEPGPVT-OH; N-terminus and C-terminus assumed)
recognition by the original melanoma reactive T-cells [2]: recognized
Recognition by G9-280 reactive T-cell ([2]; 51Cr release, T2 cells preincubated with 1 ug/ml peptide): + (+, recognized)
recognition and lysis of original epitopes and melanoma tumor cells (624 mel) by PBL stimulated with the peptide, compared with natural epitopes [4]: better
% specific lysis by PBL stimulated with the peptide [4, 22]: 71%
% specific lysis by PBL stimulated with the peptide [5, 23]: 58%
% specific lysis by PBL stimulated with the peptide [5, 24]: 87%
% specific lysis by PBL stimulated with the peptide [5, 25]: 0%
binding affinity to HLA-A2.1 compared with the natural epitope [6]: higher binding affinity

CC[C@H](C)[C@H](NC(=O)[C@@H](N)CCCCN)C(=O)N[C@@H](Cc1c[nH]c2ccccc12)C(=O)NCC(=O)N[C@@H](CCC(N)=O)C(=O)N[C@@H](Cc1ccc(O)cc1)C(=O)N[C@@H](Cc1c[nH]c2ccccc12)C(=O)N[C@@H](CCC(N)=O)C(=O)N[C@H](C(=O)O)C(C)C [G9-154-2I] (H-KIWGQYWQV-OH; N-terminus and C-terminus assumed)
Recognition by G9-154 reactive T-cell [2]: + (+, recognized)
recognition and lysis of original epitopes and melanoma tumor cells (624 mel) by PBL stimulated with the peptide, compared with natural epitopes [4]: better
% specific lysis by PBL stimulated with the peptide [4, 8]: 23%
% specific lysis by PBL stimulated with the peptide [5, 9]: 38%
% specific lysis by PBL stimulated with the peptide [5, 10]: 37%
% specific lysis by PBL stimulated with the peptide [5, 11]: 1%
IC50 ([6]; modified gp100 G9-154 peptides, read-out: Binding affinity to HLA-A2.1): 3 nM
